Reference: US5567704A, “R-enatiomerically pure hydroxylated xanthine compounds to treat baldness” (priority 1995, dated 1996)

Legend:
IL-1α = assay: mouse plasma IL-1α ELISA after endotoxin; format: in vivo; settings: for Plasma IL-1: LPS + CT-1501R
Method: For ELISA measurements of cytokine levels in plasma, blood was collected by retro-orbital or cardiac puncture of anesthetized mice, immediately centrifuged and the EDTA plasma stored at -70° C. Particulate free plasma was thawed on ice and cytokine levels determined utilizing commercial ELISA assays with normal mouse plasma used to generate standard curves. Murine tumor necrosis factor-α and interleukin-1αkits were purchased from Genzyme (Cambridge, Mass.) and Endogen (Boston, Mass.), respectively. Each data point was an average of two ELISA measurements made from EDTA […] pooled from three mice. The data summarized in Table 3 were compiled from two independent experiments; data from Table 4 and 5 were from single experiments of three mice per data point.
In particular, peak levels observed at 6, 12 and 18 hours post endotoxin were decreased 1.2, 4.3 and 3.2-fold, respectively. Finally, IL-6 measurements were made in a similar manner (Table 6, FIG. 8).

[1] = tested on: PBMC (peripheral blood mononuclear cells); assay: two-way mixed lymphocyte reaction (MLR); format: cell-based, human; settings: FIG. 1
Description: Various in vitro assays can be used to measure effects of the inventive compounds to module immune activity and have antitumor activity using a variety of cellular types. For example, a mixed lymphocyte reaction (MLR) provides a valuable screening tool to determine biological activity of each inventive compound. In the MLR, PBMCs (peripheral blood mononuclear cells) are obtained by drawing whole blood from healthy volunteers in a heparinized container and diluted with an equal volume of hanks balanced salt solution (HBSS). This mixture is layered on a sucrose density gradient, such as a Ficoll-Hypaque® gradient (specific gravity 1.08), and centrifuged at 1000× g for 25 minutes at room temperature or cooler. PBMC are obtained from a band at a plasma-Ficoll interface, separated and washed at least twice in a saline solution, such as HBSS. Contaminating red cells are lysed, such as by ACK lysis for 10 min at 37° C., and the PBMCs are washed twice in HBSS. The pellet of purified PBMCs is resuspended in complete medium, such as RPMI 1640 plus 20% human inactivated serum. Proliferative response of PBMC to allogeneic stimulation is determined in a two-way MLR performed in a 96-well microtiter plate. […] At the conclusion of the incubation tritiated thymidine is added (for example, 1 μCi/well of 40 to 60 Ci/mmole) and proliferation determined by liquid scintillation counting. […]

HUVEC = assay: adhesion of U937 cells to activated HUVEC; format: cell-based, human; settings: 250 μM, FIG. 21
Method: (§1) Murine peritoneal exudate cell macrophages (PEC) were isolated by perfusion of mouse peritoneum and plated into 96-well trays at 5×10^5 cells per well. Cells were stimulated with 5 μg/ml Salmonella abortus equi -derived endotoxin (LPS; Sigma Chemical Co., L-1887) or […] IL-1α (Genzyme; Cambridge, Mass.) with or without the addition of CT1501R added to the cultures one hour prior to addition of the stimulus. At various times thereafter, supernatants were removed and levels of either TNF-α or IL-1α were assayed using commercial 96-well microtiter immunoassay kits (Genzyme; TNF; Endogen, Boston, Mass.; IL-1α) according to manufacturer's specifications. For the adhesion studies, early passage human umbilical vein endothelial cells (HUVEC) were obtained. from commercial suppliers (Clonetics, San Diego, Calif. or Cell Systems, Seattle, Wash.) and cultured in defined, Hepes buffered, serum free medium (Cell Systems, cat 301-180) supplemented with acidic FGF (Cell Systems cat 401-111). 4000 cells were plated into each well of a 96-well microtiter plate and allowed to incubate for 72 hrs at 37° C. […] After addition of […] Hanks Balanced Salt Solution (HBSS), the microtiter plate was then analyzed on a Millipore Cytofluor fluorescent plate reader (excitation 488 nm; emission 525 nm). […]

[2] = tested on: TNF-α release from IL-1α activated PEC; assay: TNF-α release from IL-1α-activated peritoneal macrophages (ELISA); format: cell-based, murine; settings: Mus musculus, Peritoneal macrophage, 50 ng/ml IL-1α, 24, 48 or 72 hrs, FIG. 20, read-out: inhibition of induced levels of TNF-α
Method: as §1

U937 cells = assay: adhesion of IL-1α activated U937 cells to HUVEC; format: cell-based, human; settings: 250 μM pre-treatment of U937 cells, FIG. 22
Method: as §1

C[C@@H](O)CCCCn1c(=O)c2c(ncn2C)n(C)c1=O [CT1501R, (R)-1-(5-hydroxyhexyl)-3,7-dimethylxanthine]
fold decrease of plasma IL-1α (IL-1α; 6 hours post endotoxin): 1.2 fold
fold decrease of plasma IL-1α (IL-1α; 12 hours post endotoxin): 4.3 fold
fold decrease of plasma IL-1α (IL-1α; 18 hours post endotoxin): 3.2 fold
Plasma IL-1 (IL-1α; 0 hours post LPS): 0 pg/mL
Plasma IL-1 (IL-1α; 0.17 hours post LPS): 0 pg/mL
Plasma IL-1 (IL-1α; 0.5 hours post LPS): 22 pg/mL
Plasma IL-1 (IL-1α; 1 hour post LPS): 10.8 pg/mL
Plasma IL-1 (IL-1α; 3 hours post LPS): 33.2 pg/mL
Plasma IL-1 (IL-1α; 6 hours post LPS): 133 pg/mL
Plasma IL-1 (IL-1α; 12 hours post LPS): 32.3 pg/mL
Plasma IL-1 (IL-1α; 18 hours post LPS): 46.7 pg/mL
Plasma IL-1 (IL-1α; 24 hours post LPS): 43.5 pg/mL
Plasma IL-1 (IL-1α; 36 hours post LPS): 18.8 pg/mL
Plasma IL-1 (IL-1α; 48 hours post LPS): 0 pg/mL
proliferative response of PBMC to allogeneic stimulation [1]: showed dose-response activity
adhesiveness of activated HUVEC for U937 cells (HUVEC; 1 hour prior to TNF-α, IL-1α or LPS): marked suppression in the relative adhesiveness of the activated HUVEC
background attachment of U937 cells to HUVEC (HUVEC; non-activated HUVEC): no significant effect on background attachment of U937 cells to HUVEC
inhibition at 250 µM [2]: 50 to 70%
IL-1α mediated increase in adhesion of U937 cells to HUVEC (U937 cells): effectively blocked the IL-1α mediated increase in adhesion to HUVEC to near background levels
